Consider 25 compounds from patent US8362050B2, “Compounds and methods for modulating G protein-coupled receptors” (IRM LLC, priority 2008, dated 2013).

Each structure is given as a SMILES string. pEC50: −log10 of the molar value. Like-named read-outs stand apart in the source and are kept apart here.

In the assay the target is T1, Human GPR120 (Homo sapiens, UniProt Q5NUL3).
T1 construct: Ga16 (promiscuous G protein) fusion partner; expressed in transfected cells
T1 sequence (Q5NUL3 with tags, fused parts or gaps): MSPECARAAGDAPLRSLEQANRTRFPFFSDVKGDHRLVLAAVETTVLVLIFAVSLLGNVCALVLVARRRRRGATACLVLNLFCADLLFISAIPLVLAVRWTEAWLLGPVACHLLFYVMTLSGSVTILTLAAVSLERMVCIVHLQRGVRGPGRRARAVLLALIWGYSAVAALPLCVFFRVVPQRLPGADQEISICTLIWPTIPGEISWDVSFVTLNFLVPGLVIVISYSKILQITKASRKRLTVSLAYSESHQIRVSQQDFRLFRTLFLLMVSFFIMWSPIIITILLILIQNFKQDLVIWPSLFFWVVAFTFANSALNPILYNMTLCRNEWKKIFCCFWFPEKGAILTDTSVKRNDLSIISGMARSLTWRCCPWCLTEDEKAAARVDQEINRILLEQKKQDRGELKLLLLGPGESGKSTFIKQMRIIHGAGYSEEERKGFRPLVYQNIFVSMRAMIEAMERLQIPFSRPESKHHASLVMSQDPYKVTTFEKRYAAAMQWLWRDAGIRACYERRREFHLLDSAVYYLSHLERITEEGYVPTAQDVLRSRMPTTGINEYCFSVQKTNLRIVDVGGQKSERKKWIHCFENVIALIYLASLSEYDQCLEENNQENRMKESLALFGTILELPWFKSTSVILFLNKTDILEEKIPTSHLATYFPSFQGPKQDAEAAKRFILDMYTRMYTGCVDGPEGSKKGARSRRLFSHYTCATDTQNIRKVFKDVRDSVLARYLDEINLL
Kind of assay: FLIPR assay: agonist-induced calcium mobilization in HEK293-GPR120-Ga16 cells. Format: cell-based. The settings on record: for pEC50: GPR120 activation, calcium mobilization, HEK293-GPR120-Ga16 cells; for Emax: % enhancement of the test compound relative to a known compound, read-out: % Efficiency. The procedure:
Human GPR120 stable cell-line was generated in HEK293 cells. GPR120 (Accession number BC101175) is fused to a promiscuous G protein, Ga16. The expression plasmid is transfected into HEK293 cells using Fugene6 following manufacturer's instruction. Stable cell-lines are generated following drug selection.
FLIPR (Fluorimetric Imaging Plate Reader, Molecular Devices) assays are performed to measure agonist-induced calcium mobilization in the GPR120-expressing cells. One day before the FLIPR assay, HEK293-GPR120-Ga16 cells are seeded into poly-D-lysine coated black-wall-clear bottom 384 well plates (Falcon) at 25,000 cells per well in 40 μl DMEM supplemented with 1% of FBS. The cells are incubated overnight at 37° C. in a humidified incubator. The medium is aspirated on the day of the FLIPR assay. The cells are incubated with 50 μl/well of the assay buffer (HBSS, 20 mM HEPES, 2.5 mM probenecid, pH7.4) containing Fluo-4 NM dye (Invitrogen cat# F36205) at 37° C. for 45 minutes, and then equilibrated at room temperature for 30 minutes. Compounds are dissolved in DMSO and diluted to desired concentrations with assay buffer. Fluorescent output is measured immediately following compound addition (12.5 μl/well) on the FLIPR machine.
An EC50 value was calculated using the change of fluorescent intensity from the reaction initiation. […] In some examples, compounds provided herein have EC50 values from 0.1 μM to 5 μM, while in other examples from 0.5 μM to 5 μM.
The EC50 value in those experiments is given as that concentration of the test compound in question that provoke a response halfway between the baseline and maximum responses. In certain examples compounds of Formula (I) have EC50 values from 0.001 μM to 5 μM. In other examples, compounds of Formula (I) have EC50 values from 0.001 μM to 4 μM. In other examples, compounds of Formula (I) have EC50 values from 0.001 μM to 3 μM. In other examples, compounds of Formula (I) have EC50 values from 0.001 μM to 2 μM. In other examples, compounds of Formula (I) have EC50 values from 0.001 μM to 1 μM. In other examples, compounds of Formula (I) have EC50 values from 0.001 μM to 0.5 μM. […] In other examples, compounds of Formula (I) have EC50 values from 0.001 μM to 0.1 μM.
The % efficiency in those experiments is given as that % enhancement of the test compound in question relative to a known compound. In certain examples compounds of Formula (I) have a % efficiency values from 50% to 150%. In other examples, compounds of Formula (I) have a % efficiency values from 55% to 150%. In other examples, compounds of Formula (I) have a % efficiency values from 60% to 150%. In other examples, compounds of Formula (I) have a % efficiency values from 65% to 150%. In other examples, compounds of Formula (I) have a % efficiency values from 70% to 150%. In other examples, compounds of Formula (I) have a % efficiency values from 75% to 150%. In other examples, compounds of Formula (I) have a % efficiency values from 80% to 150%. In other examples, compounds of Formula (I) have a % efficiency values from 85% to 150%. In other examples, compounds of Formula (I) have a % efficiency values from 90% to 150%. In other examples, compounds of Formula (I) have a % efficiency values from 95% to 150%. In other examples, compounds of Formula (I) have a % efficiency values from 100% to 150%.
Background: Calcium assays in cells follow changes in intracellular calcium, usually with a dye or a luminescent sensor.

Turning to `CCn1c(-c2cccc(OC)c2)cs/c1=N\c1ccc(C(=O)O)cc1` [Compound 33, (Z)-4-(3-ethyl-4-(3-methoxyphenyl)thiazol-2(3H)-ylideneamino)benzoic acid], the negative-log EC50 (pEC50) (read-out: EC50 Range) was 6.00 to 6.30. On the same count and under the same terms, as for `O=C(O)c1cccc(-n2cc(-c3ccc(Br)cc3)nn2)c1` [Compound 63, 3-(4-(4-bromophenyl)-1H-1,2,3-triazol-1-yl)benzoic acid], the figure is 5.30 to 6.00; as for `CCn1c(-c2ccccc2Cl)cs/c1=N\c1ccc(S(=O)(=O)O)cc1` [Compound 30, (Z)-4-(4-(2-chlorophenyl)-3-ethylthiazol-2(3H)-ylideneamino)benzenesulfonic acid], 6.60 to 7.00. With `Cc1ccc(-c2cn(-c3cccc(C(=O)O)c3)nn2)cc1` [Compound 57, 3-(4-p-tolyl-1H-1,2,3-triazol-1-yl)benzoic acid], the Emax stood at 53.7%. Besides, under “read-out: EC50”, the pEC50 is 5.87. For the same compound, the negative logarithm of the EC50 (pEC50) (read-out: EC50 Range) is 5.30 to 6.00. With `CC(C)n1c(-c2ccccc2)cs/c1=N\c1ccc(C(=O)O)cc1` [Compound 17, (Z)-4-(3-isopropyl-4-phenylthiazol-2(3H)-ylideneamino)benzoic acid], where the note is “read-out: EC50 Range”, the pEC50 was 6.60 to 7.00.

As for `CCn1c(-c2cccc(OC)c2)cs/c1=N\c1ccc(S(=O)(=O)O)cc1` [Compound 29, (Z)-4-(3-ethyl-4-(3-methoxyphenyl)thiazol-2(3H)-ylideneamino)benzenesulfonic acid], under “read-out: EC50 Range”, the pEC50 is 6.30 to 6.60. Same read-out and setting: then `CCn1c(-c2cccc(Cl)c2)cs/c1=N\c1ccc(C(=O)O)cc1` [Compound 35, (Z)-4-(4-(3-chlorophenyl)-3-ethylthiazol-2(3H)-ylideneamino)benzoic acid], with 6.60 to 7.00.

Take `CCn1c(-c2cccc(OCCOC)c2)cs/c1=N\c1ccc(C(=O)O)cc1` [Compound 20, (Z)-4-(3-ethyl-4-(3-(2-methoxyethoxy)phenyl)thiazol-2(3H)-ylideneamino)benzoic acid]: the Emax amounted to 77.1%. Under “read-out: EC50”, the pEC50 was 6.92. In addition, the pEC50 (read-out: EC50 Range) was 6.60 to 7.00.

In the case of `COc1ccc(-c2nc(-c3cccc(C(=O)O)c3)no2)cc1` [Compound 56, 3-(5-(4-methoxyphenyl)-1,2,4-oxadiazol-3-yl)-benzoic acid], the Emax was 60.4%. Besides, for the setting “read-out: EC50”, the pEC50 is 6.54. Also, the negative-log EC50 (pEC50) (read-out: EC50 Range) is 6.30 to 6.60. Consider `CCn1c(-c2cccc(C#N)c2)cs/c1=N\c1ccc(S(=O)(=O)O)cc1` [Compound 1, (Z)-4-(4-(3-cyanophenyl)-3-ethylthiazol-2(3H)-ylideneamino)benzenesulfonic acid], for which the pEC50 (read-out: EC50 Range) is 6.00 to 6.30. Still for that read-out and setting: then `CCn1c(-c2c(Cl)cccc2Cl)cs/c1=N\c1ccc(C(=O)O)cc1` [Compound 38, (Z)-4-(4-(2,6-dichlorophenyl)-3-ethylthiazol-2(3H)-ylideneamino)benzoic acid], with 6.60 to 7.00. Consider `COc1ccc(-n2cc(-c3cccc(C(=O)O)c3)nn2)cc1` [Compound 54, 3-(1-(4-methoxyphenyl)-1H-1,2,3-triazol-4-yl)benzoic acid], for which the Emax was 68.9%. Also, under “read-out: EC50”, the pEC50 was 5.85. The negative-log EC50 (pEC50) (read-out: EC50 Range) was 5.30 to 6.00. Regarding `CCn1c(-c2cccc(C#N)c2)cs/c1=N\c1ccc(C(=O)O)cc1` [Compound 49, (Z)-4-(4-(3-cyanophenyl)-3-ethylthiazol-2(3H)-ylideneamino)benzoic acid], where the note is “read-out: EC50 Range”, the pEC50 was 6.30 to 6.60. As to `CCc1ccc(-c2cn(-c3cccc(C(=O)O)c3)nn2)cc1` [Compound 61, 3-(4-(4-ethylphenyl)-1H-1,2,3-triazol-1-yl)benzoic acid], the pEC50 (read-out: EC50 Range) was 6.00 to 6.30.

With `CCn1c(-c2cc(Cl)ccc2Cl)cs/c1=N\c1ccc(S(=O)(=O)O)cc1` [Compound 7, (Z)-4-(4-(2,5-dichlorophenyl)-3-ethylthiazol-2(3H)-ylideneamino)benzenesulfonic acid], the Emax came to 124%. Also, where the note is “read-out: EC50”, the pEC50 is 6.96. Further, the pEC50 (read-out: EC50 Range) was 6.60 to 7.00. For `O=C(O)c1ccc(/N=c2\scc(-c3ccccc3)n2CC2CC2)cc1` [Compound 21, (Z)-4-(3-(cyclopropylmethyl)-4-phenylthiazol-2(3H)-ylideneamino)benzoic acid] the same measures were 84.7%, 6.35 and 6.30 to 6.60.

For `CCn1c(-c2cccc(Br)c2)cs/c1=N\c1ccc(C(=O)O)cc1` [Compound 47, (Z)-4-(4-(3-bromophenyl)-3-ethylthiazol-2(3H)-ylideneamino)benzoic acid], the negative logarithm of the EC50 (pEC50) (read-out: EC50 Range) is 6.60 to 7.00.

Turning to `CCn1c(-c2cccc(OCc3ccccc3)c2)cs/c1=N\c1ccc(C(=O)O)cc1` [Compound 26, (Z)-4-(4-(3-(benzyloxy)phenyl)-3-ethylthiazol-2(3H)-ylideneamino)benzoic acid], the pEC50 (read-out: EC50 Range) was 6.00 to 6.30. On the same count and under the same terms, then `COc1ccc(-c2cn(-c3cccc(C(=O)O)c3)nn2)cc1` [Compound 55, 3-(4-(4-methoxyphenyl)-1H-1,2,3-triazol-1-yl)benzoic acid], with 5.30 to 6.00. With `CCn1c(-c2cccc(OCc3ccccn3)c2)cs/c1=N\c1ccc(C(=O)O)cc1` [Compound 27, (Z)-4-(3-ethyl-4-(3-(pyridin-2-ylmethoxy)phenyl)thiazol-2(3H)-ylideneamino)benzoic acid], the Emax is 65.9%. In addition, the pEC50 (read-out: EC50) is 6.15. Besides, for the setting “read-out: EC50 Range”, the pEC50 is 6.00 to 6.30. With `CCn1c(-c2ccccc2N(C)C)cs/c1=N\c1ccc(C(=O)O)cc1` [Compound 46, (Z)-4-(4-(2-(dimethylamino)phenyl)-3-ethylthiazol-2(3H)-ylideneamino)benzoic acid], for the setting “read-out: EC50 Range”, the pEC50 was 6.00 to 6.30. The same measure, in the same setting: then `CCn1c(-c2cc(Br)ccc2O)cs/c1=N\c1ccc(C(=O)O)cc1` [Compound 50, (Z)-4-(4-(5-bromo-2-hydroxyphenyl)-3-ethylthiazol-2(3H)-ylideneamino)benzoic acid], with 6.60 to 7.00. The same measure, in the same setting: then `CCn1c(-c2ccccc2)cs/c1=N\c1ccc(S(=O)(=O)O)cc1` [Compound 37, (Z)-4-(3-ethyl-4-phenylthiazol-2(3H)-ylideneamino)benzenesulfonic acid], with 6.60 to 7.00. Regarding `CCc1ccc(-c2cn(-c3ccc(F)c(C(=O)O)c3)nn2)cc1` [Compound 69, 5-(4-(4-ethylphenyl)-1H-1,2,3-triazol-1-yl)-2-fluorobenzoic acid], the pEC50 (read-out: EC50 Range) was 5.30 to 6.00.

Consider `O=C(O)c1cccc(-n2cc(-c3ccccc3F)nn2)c1` [Compound 60, 3-(4-(2-fluorophenyl)-1H-1,2,3-triazol-1-yl)benzoic acid], for which the pEC50 (read-out: EC50 Range) is 5.30 to 6.00.

In general, pEC50 refers to the negative decadic logarithm of the EC50, by convention in mol/L.
